The source made the active and inactive calls. No cut-off for these calls is given here.
Legend:
[1] = biological target: T1, 5-hydroxytryptamine receptor 7 (Homo sapiens, UniProt P34969); type: functional, cell-based, HEK293
[2] = species: Homo sapiens; assay: Selectivity ratio of Ki for human 5-HT1A receptor to Ki for human 5-HT7 receptor
[3] = biological target: T1, 5-hydroxytryptamine receptor 7; assay: Displacement of [3H]-5-CT from human 5-HT7 receptor expressed in HEK293 cells; type: cell-based
[4] = species: Homo sapiens; assay: Selectivity ratio of Ki for human dopamine D2L receptor to Ki for human 5-HT7 receptor
[5] = biological target: T1, 5-hydroxytryptamine receptor 7; assay: Agonist activity at human 5-HT7 receptor expressed in HEK293 cells assessed as increase in cAMP level at 10 uM after 15 mins by HTRF assay; type: functional, cell-based
[6] = biological target: T2, 5-hydroxytryptamine receptor 1A (Homo sapiens, UniProt P08908); assay: Displacement of [3H]-8-OH-DPAT from human 5-HT1A receptor expressed in HEK293 cells; type: cell-based
T2 sequence (P08908 whole entry): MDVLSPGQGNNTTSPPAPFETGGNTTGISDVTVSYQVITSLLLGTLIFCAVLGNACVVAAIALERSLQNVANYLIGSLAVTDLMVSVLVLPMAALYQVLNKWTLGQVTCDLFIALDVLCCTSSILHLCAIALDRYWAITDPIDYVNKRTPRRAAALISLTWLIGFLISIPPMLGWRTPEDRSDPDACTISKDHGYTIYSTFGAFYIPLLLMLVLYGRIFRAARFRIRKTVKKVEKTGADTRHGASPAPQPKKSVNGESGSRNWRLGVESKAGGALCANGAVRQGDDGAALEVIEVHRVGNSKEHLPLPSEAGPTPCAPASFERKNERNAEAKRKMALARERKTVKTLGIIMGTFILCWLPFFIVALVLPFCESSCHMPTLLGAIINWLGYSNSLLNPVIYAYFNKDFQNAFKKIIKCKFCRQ

[7] = biological target: D(2) dopamine receptor (Homo sapiens, UniProt P14416); assay: Displacement of [3H]-Raclopride from human dopamine D2L receptor expressed in HEK293 cells; type: cell-based
[8] = biological target: T1, 5-hydroxytryptamine receptor 7; assay: Antagonist activity at human 5-HT7 receptor expressed in HEK293 cells assessed as inhibition of 5-CT-induced cAMP production at 10 uM preincubated for 15 mins followed by 5-CT addition measured after 15 mins by HTRF assay; type: functional, cell-based
[9] = biological target: CYP3A4 (Homo sapiens, UniProt P08684); assay: Inhibition of recombinant human CYP3A4 assessed as remaining activity at 25 uM by luminescence -based microplate reader assay; type: ADME; conditions: read-out: Activity
[10] = system: Liver microsome; assay: Drug level in recombinant human liver microsomes treated with 5-(4-fluorophenyl)-3-(2-hydroxy-3-(4-(2-methoxyphenyl)piperazin-1-yl)propyl)-5-methylimidazolidine-2,4-dione at 50 uM after 120 mins by UPLC-MS/MS analysis; type: ADME; conditions: 2 h
[11] = system: Liver microsome; assay: Retention time of the compound in recombinant human liver microsomes treated with 5-(4-fluorophenyl)-3-(2-hydroxy-3-(4-(2-methoxyphenyl)piperazin-1-yl)propyl)-5-methylimidazolidine-2,4-dione at 50 uM after 120 mins by UPLC-MS/MS analysis; type: ADME; conditions: 2 h

T1 sequence (P34969 whole entry): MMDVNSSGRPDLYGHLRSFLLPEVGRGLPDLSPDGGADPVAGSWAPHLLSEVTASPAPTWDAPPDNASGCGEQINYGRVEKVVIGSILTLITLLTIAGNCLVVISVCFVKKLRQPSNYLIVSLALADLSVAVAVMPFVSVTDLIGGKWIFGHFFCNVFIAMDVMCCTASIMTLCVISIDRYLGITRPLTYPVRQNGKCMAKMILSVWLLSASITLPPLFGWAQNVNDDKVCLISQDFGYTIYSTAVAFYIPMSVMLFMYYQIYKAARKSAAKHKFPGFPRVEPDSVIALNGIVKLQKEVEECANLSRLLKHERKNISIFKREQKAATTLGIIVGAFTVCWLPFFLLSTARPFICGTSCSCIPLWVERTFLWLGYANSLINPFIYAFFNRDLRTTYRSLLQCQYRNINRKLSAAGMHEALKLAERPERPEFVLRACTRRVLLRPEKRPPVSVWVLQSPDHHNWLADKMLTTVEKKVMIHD
Sequence of D(2) dopamine receptor (P14416 whole entry): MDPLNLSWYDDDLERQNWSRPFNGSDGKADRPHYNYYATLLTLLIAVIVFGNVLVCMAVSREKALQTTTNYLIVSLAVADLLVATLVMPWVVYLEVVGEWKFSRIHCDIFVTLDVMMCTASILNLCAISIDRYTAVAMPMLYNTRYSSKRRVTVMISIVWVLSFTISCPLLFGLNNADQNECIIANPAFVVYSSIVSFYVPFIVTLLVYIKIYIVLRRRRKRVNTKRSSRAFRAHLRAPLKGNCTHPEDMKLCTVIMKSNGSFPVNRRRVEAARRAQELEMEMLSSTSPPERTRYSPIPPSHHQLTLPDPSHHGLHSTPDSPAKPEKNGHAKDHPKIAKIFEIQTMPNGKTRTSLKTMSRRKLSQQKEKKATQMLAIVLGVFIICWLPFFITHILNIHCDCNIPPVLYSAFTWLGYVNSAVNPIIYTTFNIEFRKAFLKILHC
Sequence of CYP3A4 (P08684 whole entry): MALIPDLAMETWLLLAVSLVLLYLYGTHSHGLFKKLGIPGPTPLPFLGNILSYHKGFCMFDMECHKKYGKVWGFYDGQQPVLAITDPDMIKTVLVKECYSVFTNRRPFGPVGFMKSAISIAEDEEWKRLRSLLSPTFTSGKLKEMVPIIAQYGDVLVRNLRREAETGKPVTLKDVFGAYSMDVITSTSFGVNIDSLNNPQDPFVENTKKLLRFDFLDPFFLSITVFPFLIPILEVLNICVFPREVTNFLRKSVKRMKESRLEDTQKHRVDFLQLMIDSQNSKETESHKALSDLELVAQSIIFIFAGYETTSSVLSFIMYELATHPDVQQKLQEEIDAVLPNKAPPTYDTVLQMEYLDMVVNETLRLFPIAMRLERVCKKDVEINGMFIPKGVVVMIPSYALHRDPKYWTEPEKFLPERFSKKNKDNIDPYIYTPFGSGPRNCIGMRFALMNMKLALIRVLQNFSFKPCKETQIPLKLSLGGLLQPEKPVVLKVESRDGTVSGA

Row | IC50 [1] | Ratio Ki [2] | Ki [3] | Ratio Ki [4] | Activity [5] | Ki [6] | Ki [7] | inhibition [8] | activity at 25 µM [9] | Drug metabolism [10] | Retention_time [11] | Compound
1 | 1.39 µM | 3 | 0.017 µM | 18 | inactive | 0.059 µM | 0.302 µM |  |  |  |  | CC1(c2ccc(F)cc2)NC(=O)N(CC(O)CN2CCN(c3cccc(Cl)c3Cl)CC2)C1=O (centres undefined)
2 |  | 8 | 0.047 µM | 18 | inactive | 0.397 µM | 0.839 µM | 30% |  |  |  | CC1(c2ccc(F)cc2)NC(=O)N(CC(O)CN2CCN(c3ccccc3Cl)CC2)C1=O (centres undefined)
3 | 5.94 µM | 33 | 0.089 µM | 58 | inactive | 2.97 µM | 5.19 µM |  |  |  |  | COc1cccc(N2CCN(CC(O)CN3C(=O)NC(C)(c4ccc(F)cc4)C3=O)CC2)c1 (centres undefined)
4 |  | 7 | 0.234 µM | 7 | inactive | 1.65 µM | 1.71 µM | 6% |  |  |  | CC1(c2ccc(F)cc2)NC(=O)N(CC(O)CN2CCN(c3ccccc3F)CC2)C1=O (centres undefined)
5 | 24 µM | 6 | 0.141 µM | 14 | inactive | 0.821 µM | 1.98 µM |  |  |  |  | CC1(c2ccc(F)cc2)NC(=O)N(CC(O)CN2CCN(c3ccc(Cl)c(Cl)c3)CC2)C1=O (centres undefined)
6 | 1.01 µM | 23 | 0.056 µM | 32 | inactive | 1.3 µM | 1.81 µM |  |  |  |  | Cc1ccc(C)c(N2CCN(CC(O)CN3C(=O)NC(C)(c4ccc(F)cc4)C3=O)CC2)c1 (centres undefined)
7 | 0.343 µM | 23 | 0.014 µM | 67 | inactive | 0.319 µM | 0.931 µM |  |  |  |  | CC1(c2ccc(F)cc2)NC(=O)N(CC(O)CN2CCN(c3ccccc3C#N)CC2)C1=O (centres undefined)
8 |  | 6 | 0.908 µM | 5 | inactive | 5.3 µM | 4.26 µM | 16% |  |  |  | CC1(c2ccc(F)cc2)NC(=O)N(CC(O)CN2CCN(c3ccc(Cl)cc3)CC2)C1=O (centres undefined)
9 |  | 8 | 1.19 µM | 4 | inactive | 9.17 µM | 6.79 µM | 9% |  |  |  | CC1(c2ccc(F)cc2)NC(=O)N(CC(O)CN2CCN(c3ccc(F)cc3F)CC2)C1=O (centres undefined)
10 |  |  |  |  |  |  |  |  | 50% |  |  | COc1ccccc1N1CCN(CC(O)CN2C(=O)NC(C)(c3ccc(F)cc3)C2=O)CC1 (centres undefined)
11 |  |  |  |  |  |  |  |  |  | metabolite_detected | 3.77 min | CC1(c2ccc(F)cc2)NC(=O)N(CC(O)CN2CCN(c3ccccc3O)CC2)C1=O (centres undefined)
12 |  | 6 | 0.177 µM | 13 | inactive | 1 µM | 2.26 µM | 19% |  |  |  | Cc1ccc(N2CCN(CC(O)CN3C(=O)NC(C)(c4ccc(F)cc4)C3=O)CC2)cc1C (centres undefined)
13 |  | 8 | 0.837 µM | 7 | inactive | 6.86 µM | 5.64 µM | 12% |  |  |  | CC1(c2ccc(F)cc2)NC(=O)N(CC(O)CN2CCN(c3ccc(F)cc3)CC2)C1=O (centres undefined)
14 | 0.081 µM | 10 | 0.01 µM | 13 | inactive | 0.098 µM | 0.127 µM |  |  |  |  | CCOc1ccccc1N1CCN(CC(O)CN2C(=O)NC(C)(c3ccc(F)cc3)C2=O)CC1 (centres undefined)
15 |  | 12 | 0.223 µM | 13 | inactive | 2.73 µM | 2.91 µM | 18% |  |  |  | CC1(c2ccc(F)cc2)NC(=O)N(CC(O)CN2CCN(c3ccccc3)CC2)C1=O (centres undefined)
16 | 1.81 µM | 71 |  | 3 | inactive |  |  |  |  |  |  | CC1(c2ccc(F)cc2)NC(=O)N(CC(O)CN2CCN(C(c3ccccc3)c3ccccc3)CC2)C1=O (centres undefined)

Row | Compound | IC50 [1] | Ratio Ki [2] | Ki [3] | Ratio Ki [4] | Activity [5] | Ki [6] | Ki [7] | inhibition [8] | activity at 25 µM [9] | Drug metabolism [10] | Retention_time [11]
17 | NCCc1c[nH]c2ccc(C(N)=O)cc12 |  |  |  |  | Active |  |  |  |  |  | 

— ChEMBL document CHEMBL3769356, “Rational design in search for 5-phenylhydantoin selective 5-HT7R antagonists. Molecular modeling, synthesis and biological evaluation” (Eur J Med Chem, 2016)
